The source made the active and inactive calls. No rule for the calls is given here.
Experiment: blockers of mitochondrial fusion, WT vs mutant – cell-based, chemical genetic, wild-type and mutant, confirmation (AID 1361)
Conditions: Cell-based mitochondrial fusion phenotype, imaging
[1] = mutant cells, measured here: mutant cell line IC50

Structure (SMILES) | IC50 (WT cells) | IC50 [1] [µM]
O=C1NC(Nc2nc3ccccc3s2)(C(F)(F)F)C(=O)N1C1CCCCC1 (stereo unspecified) | 20 µM | > 25
CCn1cc(C(=O)OCC(=O)c2cc(C)n(-c3cccc(C(F)(F)F)c3)c2C)c(=O)c2ccc(C)nc21 | 11.1 µM | > 25
O=C(Nc1cc(S(=O)(=O)N2CCCCC2)ccc1Cl)c1ccccc1NS(=O)(=O)c1ccc(F)cc1 | 23.4 µM | > 25
C=CCNC1=C(Cl)C(=O)N(c2cccc(Cl)c2Cl)C1=O | > 25 µM (inactive) | > 25
CCOc1cccc(-c2nn(-c3ccccc3)cc2/C=C(/C#N)C(=O)NCCCn2ccnc2)c1 | > 25 µM (inactive) | > 25
Clc1ccc2ncc(-c3nnnn3-c3ccccc3)c(-c3ccccc3)c2c1 | 15.7 µM | > 25
Cc1ccccc1NS(=O)(=O)c1cc(C(=O)N2CCc3ccccc3C2)ccc1C | > 25 µM (inactive) | > 25
CCOC(=O)C1=C(NC(=S)NC(=O)c2ccccc2)c2ccccc2CC12CCCC2 | 6.33 µM | > 25
CC1(C)CC(=O)C(C=NCc2cccnc2)=C(O)C1 | > 25 µM (inactive) | > 25
Cc1ccc(C2=NN(S(=O)(=O)c3ccccc3)C(c3ccccc3O)C2)cc1 (stereo unspecified) | 3.89 µM | 24.4
Cc1ccc(-n2nc3c(c2NC(=O)c2ccc4c(c2)OCO4)CSC3)c(C)c1 | > 25 µM (inactive) | > 25
O=C(COC(=O)C1(c2ccc(Cl)cc2)CCCC1)Nc1ncc(C(F)(F)F)cc1Cl | 18.2 µM | > 25
COC(=O)Cc1ccc(N(Cc2ccccc2F)S(=O)(=O)c2ccc(C)cc2)cc1 | 3.34 µM | > 25
O=C(NCc1ccccc1Cl)c1cnccn1 | > 25 µM (inactive) | > 25
CCC1Oc2ccc(C)cc2N(CC(=O)N(Cc2ccc(C)o2)C2CCCC2)C1=O (stereo unspecified) | > 25 µM (inactive) | > 25
CC(C)(C)N/N=C1\CC(c2ccccc2)Oc2ccccc21 (stereo unspecified) | 14.5 µM | > 25
CCOC(=O)C1CCN(S(=O)(=O)c2c(C)n[nH]c2C)CC1 | > 25 µM (inactive) | > 25
COc1ccc(OC)c(C(=O)c2coc3ccc(OC)cc23)c1 | > 25 µM (inactive) | > 25
Cc1ccccc1OCC(=O)Nc1ccccc1N1CCC(C)CC1 | 16.1 µM | > 25
COc1c(F)c(F)c(C(=O)O)c(Nc2ccccc2C)c1F | > 25 µM (inactive) | > 25
Cc1ccccc1COC(=O)c1nn(-c2ccccc2)nc1N | > 25 µM (inactive) | > 25

Structure (SMILES) | IC50 (WT cells) | IC50 [1] [µM]
O=C(OCC(=O)N1CCN(C(=O)c2ccco2)CC1)c1cn(-c2ccccc2)nc1-c1ccccc1 | 13.1 µM | 16.3
O=C(OC(C(=O)Nc1cccc(C(F)(F)F)c1)c1ccccc1)C1CCCCC1 (stereo unspecified) | 9.59 µM | > 25
Cc1nn(-c2cc(C)c3ccccc3n2)c2c1C1C(C2)C1(C)C (stereo unspecified) | > 25 µM (inactive) | > 25
COc1cc(/C=N/N=C(/C(=O)c2ccccc2)c2ccccc2)cc(OC)c1O | 16.5 µM | > 25
COc1ccc(NC(=S)NC(NC(=O)c2ccc(Cl)cc2Cl)C(Cl)(Cl)Cl)c([N+](=O)[O-])c1 (stereo unspecified) | 11.4 µM | > 25
CC(C)N(C(=S)NC1CC2CCC1C2)c1ccccc1 (stereo unspecified) | 25 µM (inactive) | > 25
Cc1onc(-c2ccccc2Cl)c1C(=O)Nc1nnc(-c2ccc(Br)cc2)s1 | 8.39 µM | > 25
OC(CC1CC12c1ccccc1-c1ncccc12)(c1ccccc1)c1ccccc1 (stereo unspecified) | 13.8 µM | > 25
O=c1c2ccccc2n(Cc2ccc(F)cc2)c(=O)n1C1CCCC1 | 17 µM | > 25
CC/C(=C(/CC)c1ccc(O)cc1)c1ccc(O)cc1 | 23.8 µM | > 25
Cc1ccc(/C=N/NC(=O)COc2ccccc2-c2ccccc2)cc1 | 14.9 µM | > 25
CN(C)C(=O)CSc1nnc(CCCCCNC(=O)OC(C)(C)C)o1 | > 25 µM (inactive) | > 25
CCC1Oc2ccc(C)cc2N(CC(=O)NCCCN2CCCCC2CC)C1=O (stereo unspecified) | > 25 µM (inactive) | > 25
CC(C)(C)c1ccc(CN2N=C(/C=C/c3ccccc3)CCC2=O)cc1 | 11.3 µM | > 25
OC(CNCc1ccc(Cl)cc1)(c1ccccc1)c1ccc(F)cc1 (stereo unspecified) | > 25 µM (inactive) | > 25
CCOc1ccccc1N1CCN(C(=O)c2ccc3[nH]c4c(c3c2)CCCC4)CC1 | 17.1 µM | > 25
CC(C)c1ccccc1OCC(=O)NC1CCCc2ccccc21 (stereo unspecified) | 20.4 µM | > 25
Clc1ccc(CSc2nnc(-c3ccncc3)o2)c(Cl)c1 | > 25 µM (inactive) | > 25
CN(CC(=O)Nc1ccccc1Sc1ccccc1)C1CCCCC1 | 23.2 µM | > 25
O=C(c1ccccc1)c1cc(Cl)ccc1N1C(=O)C=CC1=O | > 25 µM (inactive) | > 25
Cc1cccc(NC(=O)c2ccc(N3CCCCC3)c([N+](=O)[O-])c2)n1 | > 25 µM (inactive) | > 25

Structure (SMILES) | IC50 (WT cells) | IC50 [1] [µM]
CCOc1ccccc1NC(=O)C(OC(=O)c1ccc(O)cc1)c1ccccc1 (stereo unspecified) | 9.83 µM | > 25
COc1ccccc1-n1cnc2sc(-c3ccccc3)cc2c1=O | > 25 µM (inactive) | > 25
CCCCc1nc(NCCN)c(C#N)c2c1CSC(C)(C)C2 | 21.7 µM | > 25
O=C(OC(c1ccc(NS(=O)(=O)c2ccccc2)cc1)(C(F)(F)F)C(F)(F)F)c1ccccc1 | 18.2 µM | > 25
COc1cccc(OC)c1OCCCCN1CCCC1 | > 25 µM (inactive) | > 25
Cc1nn(Cc2ccccc2Cl)c(C)c1NC(=O)NC12CC3CC(CC(C3)C1)C2 | > 25 µM (inactive) | > 25
Cc1ccc(NCC(=O)N/N=C/c2cc3ccccc3nc2Cl)cc1 | > 25 µM (inactive) | > 25
Cc1nc2ccc(NC(=O)c3nn(CC(C)C)c(=O)c4ccccc34)cc2s1 | > 25 µM (inactive) | > 25
CCCCn1c(N2CCC(Cc3ccccc3)CC2)nc2c1c(=O)[nH]c(=O)n2C | 13.7 µM | > 25
Cc1cc(C)cc(NS(=O)(=O)c2ccc(Oc3ncc(C(F)(F)F)cc3Cl)cc2)c1 | 10.9 µM | > 25
CCOC(=O)c1oc2cccc(OCC(O)CNC(C)C)c2c1C (stereo unspecified) | > 25 µM (inactive) | > 25
CC1CCCN(c2nc(-c3cccnc3)nc3scc(-c4ccccc4)c23)C1 (stereo unspecified) | 11.8 µM | > 25
O=C(COC(=O)CCCOc1ccc(Cl)cc1Cl)Nc1cccc(Cl)c1 | 24 µM (inactive) | 22.8
O=C(O)CCc1ccc(-c2ccc(F)cc2)n1Cc1ccco1 | > 25 µM (inactive) | > 25
CCn1c2ccccc2c2cc(/C=N/NC(=O)c3cccc(C)c3)ccc21 | > 25 µM (inactive) | > 25
CC(C)C(c1nnnn1C(C)(C)C)N1CCC(Cc2ccccc2)CC1 (stereo unspecified) | 12.1 µM | > 25
Cc1ccc(NC(=S)N(CCCN2CCCC2)Cc2cccn2Cc2ccc(Cl)cc2)cc1 | 14.4 µM | > 25
COCCN(C(=S)Nc1ccc(C(C)C)cc1)C(C)c1cccs1 (stereo unspecified) | > 25 µM (inactive) | > 25
Cc1ccc(NC(=O)CC2S/C(=N/N=C3\CCCc4ccccc43)NC2=O)cc1 (stereo unspecified) | 22.2 µM | > 25
CCOc1ccc(NC(=O)C2CC(=O)N(C(C)C)C2)cc1 (stereo unspecified) | > 25 µM (inactive) | > 25
COc1ccc(CCn2nnnc2C(C(C)C)N2CCN(c3ncccn3)CC2)cc1OC (stereo unspecified) | > 25 µM (inactive) | > 25

Structure (SMILES) | IC50 (WT cells) | IC50 [1] [µM]
Cc1cnc(C(=O)OCC(=O)Nc2ccc(Cl)cc2)cn1 | > 25 µM (inactive) | > 12.5
O=c1c2c3c(sc2nc(NCCO)n1CCc1ccccc1)CCCCC3 | 22.3 µM | > 25
CCOc1ccc(-c2nc(N)ncc2Oc2ccccc2Br)c(O)c1 | > 25 µM (inactive) | > 25
O=c1c2c3c(sc2nc2n1CCC2)CCC3 | > 25 µM (inactive) | > 25
Cc1cc2ncn(/N=C/c3cccnc3)c2cc1C | > 25 µM (inactive) | > 25
COc1ccccc1CNc1nc2nc(C)c(C)c(=O)n2[nH]1 | > 25 µM (inactive) | > 25
NNC(=O)c1cc2c(N3CCC(Cc4ccccc4)CC3)ncnc2s1 | 17.6 µM | > 25
CCc1nnc(NC(=O)Nc2ccccc2OC)s1 | > 25 µM (inactive) | > 25
Clc1cncc(Cl)c1NNc1c2ccccc2nc2ccccc12 | > 25 µM (inactive) | > 25
NS(=O)(=O)c1ccc(N2N=C(c3ccccc3)CC2c2ccc(F)cc2)cc1 (stereo unspecified) | 12 µM | > 25
COc1cc2c(cc1NC(=O)CSc1nc3ccccc3[nH]1)oc1ccccc12 | 11.2 µM | > 25
Cc1cc(C)n(-c2nc(C)nc3c2cnn3-c2ccccc2)n1 | > 25 µM (inactive) | > 25
CCOC(=O)c1c(N)sc(C(O)(C(F)(F)F)C(F)(F)F)c1-c1ccccc1 | 20.3 µM | > 25
CCCOP(=O)(OCCC)C(Nc1cccc(C(F)(F)F)c1)c1ccc(C)cc1 (stereo unspecified) | 11.2 µM | > 25
CCCOC(=O)c1ccc(Oc2cn[nH]c2-c2ccc(OC)cc2O)cc1 | 11.3 µM | 21.9
CCOC(=O)c1cnc(-n2nc(C)cc2C)nc1NNc1cc(C)nc(-c2ccccc2)n1 | 16.3 µM | > 25
COc1cc2[nH]c(=O)n(CCC(=O)N3CCN(c4cccc(C)c4C)CC3)c(=O)c2cc1OC | > 25 µM (inactive) | > 25
CCOC(=O)c1cnc(SC)nc1Sc1cc(Cl)ccc1Cl | 11.2 µM | 23.9
CC(C)CCNC(=O)CCCOc1cc(=O)n(C)c2ccccc12 | > 25 µM (inactive) | > 25
CCC(C)(C)NC(=O)CN(C(=O)c1snc(C(N)=O)c1N)c1ccc2c(c1)OCCO2 | > 25 µM (inactive) | > 25

From PubChem BioAssay AID1361 (SRMLSC, 2008)
